Experimental data: patent US11530213B2, “Naphthyridinone derivatives and their use in the treatment of arrhythmia” (NOVARTIS AG, priority 2016, dated 2022)
pIC50: −log10 of the molar value.

The molecules below were run against GIRK1/4 (Homo sapiens (Human), UniProt P48544+P48549) (assay: GIRK1/4 inhibition, Quattro (IonWorks) population patch clamp, inward potassium current in GIRK 1/4 HEK293 stable cells (test assay No. 1)). Details: percentage of current inhibition normalized to DMSO-only control.
GIRK1/4, sequence (P48549 whole entry): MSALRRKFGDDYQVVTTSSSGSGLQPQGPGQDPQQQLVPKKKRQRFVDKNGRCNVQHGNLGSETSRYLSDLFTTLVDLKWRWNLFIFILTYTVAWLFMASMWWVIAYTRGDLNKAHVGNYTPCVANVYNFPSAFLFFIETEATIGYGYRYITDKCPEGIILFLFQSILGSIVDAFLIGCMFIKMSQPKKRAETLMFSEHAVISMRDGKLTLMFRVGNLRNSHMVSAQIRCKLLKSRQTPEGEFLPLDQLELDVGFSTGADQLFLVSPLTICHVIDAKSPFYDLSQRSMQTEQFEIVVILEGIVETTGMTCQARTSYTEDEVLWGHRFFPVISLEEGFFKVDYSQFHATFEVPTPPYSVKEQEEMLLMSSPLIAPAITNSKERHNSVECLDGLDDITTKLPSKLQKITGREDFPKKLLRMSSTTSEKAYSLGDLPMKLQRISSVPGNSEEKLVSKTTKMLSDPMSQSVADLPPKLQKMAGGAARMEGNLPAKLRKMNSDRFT
GIRK1/4, sequence (P48544 whole entry): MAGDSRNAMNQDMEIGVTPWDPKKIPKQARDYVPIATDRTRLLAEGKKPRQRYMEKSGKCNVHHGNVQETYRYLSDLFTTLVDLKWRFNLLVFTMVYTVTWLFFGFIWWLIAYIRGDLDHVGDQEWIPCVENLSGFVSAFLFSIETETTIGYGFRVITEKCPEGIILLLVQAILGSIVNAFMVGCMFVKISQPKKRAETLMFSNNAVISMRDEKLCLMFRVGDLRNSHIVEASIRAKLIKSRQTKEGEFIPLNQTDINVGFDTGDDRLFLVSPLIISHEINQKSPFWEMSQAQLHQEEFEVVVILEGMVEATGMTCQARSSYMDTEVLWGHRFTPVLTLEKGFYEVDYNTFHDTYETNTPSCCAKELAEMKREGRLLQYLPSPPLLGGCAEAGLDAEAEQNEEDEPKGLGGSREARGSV
Assay type: cell-based
Procedure: The activity of a compound according to the present invention can be assessed by the following in vitro method. • 1. Buffers: • a. External buffer: 10 mM NaCl, 50 mM Na Gluconate, 80 mM K Gluconate, 1.8 mM CaCl2, 1 mM MgCl2, 10 mM HEPES, 10 mM Glucose, pH 7.4; osmolality […]. • b. Internal buffer: 30 mM KCl, 100 mM K Gluconate, 1 mM MgCl2, 10 mM HEPES, 1 mM EGTA, 10 mM NaCl, pH 7.2; osmolality […]. • 2. Compounds: • a. Prepare seven-fold compound dilution series (10 mM to 20 uM) in 100% DMSO, in 384-well polypropylene plates. • b. Propafenone (Sigma Aldrich, catalog number P4670) is used as a positive control and DMSO for neutral control • c. Resuspend 1 ul of compounds in DMSO into 65.7 ul external buffer in 384-well polypropylene plate and load into Plate 1 section of Molecular Devices Quattro • 3. Quattro setup: • a. Load 384-well Population Patch Plate (Molecular Devices #9000-0902) into Quattro • b. Fill Quattro F-soak trough with 20% DMSO and 50% EtOH • c. Fill Quattro buffer trough with external buffer • d. Attach internal buffer flask to Quattro internal buffer tubing • e. Attach PBS (Phosphate Buffered Saline, minus Ca^++ and Mg^++, pH7.4) bottle to F-head & E-head wash on Quattro • 4. Antibiotic: • a. Resuspend 5.6 mg amphotericin B (Sigma Aldrich, catalog number A2411) in 175 ul DMSO • b. Add the resulting solution to 50 ml internal buffer, mix and attach to antibiotic tubing port on Quattro • 5. Cells: • a. Use GIRK 1/4 HEK293 stable cells (obtained from ChanTest, 14656 Neo Parkway, Cleveland, Ohio 44128) grown to […] confluency in the following cell culture medium: DMEM containing 10% (v/v) Fetal Bovine Serum, Penicillin/Streptomycin (at “1×” concentration from a 100× stock), 0.5 mg/ml G418 and 0.1 mg/ml Zeocin. • b. Wash cells with PBS (minus Ca^++ and Mg^++), Detach cells using Detachin (Genlantis, 11011 Torreyana, San Diego, Calif. 92121), and resuspend in external buffer (5 ml final volume at 2.0-2.1×10^6 cells/ml) • c. Load into cell trough of Quattro • 6. Assay Protocol: • Quattro is controlled using IonWorks v2 software to perform the following steps: • a. Add 3.5 ul cells plus 3.5 ul external buffer to wells of Quattro Patch Plate • b. Circulate amphotericin B and internal buffer onto cells • c. Apply the following voltage protocol: Pulse 1: 15 mV for 300 milliseconds (ms), followed by Pulse 2: −120 mV for 400 ms, then Pulse 3: −15 mV for 400 ms, and finally Pulse 4: −120 mV to 40 mV over 500 ms (this is a voltage ramp). • d. Measure magnitude of inward potassium current at time point between 1200-1220 ms from start of Pulse 1 (i.e. during the voltage ramp phase). • e. Add 3.5 ul of diluted compounds (or DMSO) to wells and repeat steps c-d (final compound concentrations are 50 uM to 0.1 uM, for potent compounds 0.5 uM to 0.01 uM and each concentration is tested in quadruplicate—i.e. in 4 separate wells). • f. The difference between current magnitude pre vs. post-compound gives a measure of GIRK1/4 inhibition. • 7. Data analysis:
IC50 values are calculated by plotting the percentage of current inhibition (normalized to the DMSO-only control) as a function of compound concentration using standard data analysis software.

Row | SMILES | pIC50
1 | Cc1cc(=O)c2c(Nc3nnn(C)n3)ncc(Cl)c2n1-c1c(Cl)cccc1Cl [Example 47, 8-chloro-1-(2,6-dichlorophenyl)-2-methyl-5-((2-methyl-2H-tetrazol-5-yl)amino)-1,6-naphthyridin-4(1H)-one] | 7.23
2 | Cc1cc(=O)c2c(OCC3COC3)ncc(Cl)c2n1-c1c(Cl)cccc1Cl [Example 50, 8-chloro-1-(2,6-dichlorophenyl)-2-methyl-5-(oxetan-3-ylmethoxy)-1,6-naphthyridin-4(1H)-one] | 7.96
3 | COCc1cc(=O)c2c(OCC(CO)CO)ncc(Cl)c2n1-c1c(Cl)cccc1Cl [Example 53, 8-chloro-1-(2,6-dichlorophenyl)-5-(3-hydroxy-2-(hydroxymethyl)propoxy)-2-(methoxymethyl)-1,6-naphthyridin-4(1H)-one] | 7.55
4 | O=c1cc(C(F)F)n(-c2c(Cl)cccc2Cl)c2c(Cl)cnc(OCC(O)CO)c12 (stereo not shown) [Example 62, 8-Chloro-1-(2,6-dichlorophenyl)-2-(difluoromethyl)-5-(2,3-dihydroxypropoxy)-1,6-naphthyridin-4(1H)-one] | 7.89
5 | N#Cc1cc(=O)c2c(OCC(O)CO)ncc(Cl)c2n1-c1c(Cl)cccc1Cl (stereo not shown) [Example 63, 8-Chloro-1-(2,6-dichlorophenyl)-5-(2,3-dihydroxpropoxy)-4-oxo-1,4-dihydro-1,6-naphthyridine-2-carbonitrile] | 7.80
6 | O=c1cc(CO)n(-c2c(Cl)cccc2Cl)c2c(Cl)cnc(O)c12 [Example 64, 8-Chloro-1-(2,6-dichlorophenyl)-5-hydroxy-2-(hydroxymethyl)-1,6-naphthyridin-4(1H)-one] | 6.01
7 | CNc1cc2c(c(OCC(O)CO)n1)c(=O)cc(C)n2-c1c(Cl)cccc1Cl (stereo not shown) [Example 65, 1-(2,6-Dichlorophenyl)-5-(2,3-dihydroxpropoxy)-2-methyl-7-(methylamino)-1,6-naphthyridin-4(1H)-one] | 6.41
8 | CCc1cc2c(c(OCC(O)CO)n1)c(=O)cc(C)n2-c1c(Cl)cccc1Cl (stereo not shown) [Example 66, 1-(2,6-Dichlorophenyl)-5-(2,3-dihydroxpropoxy)-7-ethyl-2-methyl-1,6-naphthyridin-4(1H)-one] | 7.47
9 | CCc1cc2c(c(OCC(O)CO)n1)c(=O)cc(C)n2-c1c(Cl)cccc1CC (stereo not shown) [Example 67, 1-(2-Chloro-6-ethylphenyl)-5-(2,3-dihydroxypropoxy)-7-ethyl-2-methyl-1,6-naphthyridin-4(1H)-one] | 6.77
10 | Cc1cc(=O)c2c(-n3cncn3)ncc(Cl)c2n1-c1c(Cl)cccc1Cl [Example 71, 8-Chloro-1-(2,6-dichlorophenyl)-2-methyl-5-(1H-1,2,4-triazol-1-yl)-1,6-naphthyridin-4(1H)-one] | 6.75
11 | O=c1cc(CO)n(-c2c(Cl)cccc2Cl)c2c(Cl)cnc(CCCO)c12 [Example 74, 8-Chloro-1-(2,6-dichlorophenyl)-2-(hydroxymethyl)-5-(3-hydroxypropyl)-1,6-naphthyridin-4(1H)-one] | 7.16
12 | O=c1cc(CO)n(-c2c(Cl)cccc2Cl)c2c(Cl)cnc(CCC(O)CO)c12 (stereo not shown) [Example 75, 8-Chloro-1-(2,6-dichlorophenyl)-5-(3,4-dihydroxybutyl)-2-(hydroxymethyl)-1,6-naphthyridin-4(1H)-one] | 6.67

Other lines, results leading:

Row | pIC50 | SMILES
13 | 8.05 | Cc1cc(=O)c2c(OCCO)ncc(Cl)c2n1-c1c(Cl)cccc1Cl [Example 48, 8-chloro-1-(2,6-dichlorophenyl)-5-(2-hydroxyethoxy)-2-methyl-1,6-naphthyridin-4(1H)-one]
14 | 7.38 | Cc1cc(=O)c2c(NOCCO)ncc(Cl)c2n1-c1c(Cl)cccc1Cl [Example 49, 8-chloro-1-(2,6-dichlorophenyl)-5-((2-hydroxyethoxy)amino)-2-methyl-1,6-naphthyridin-4(1H)-one]
15 | 7.39 | CS(=O)(=O)CCNc1ncc(Cl)c2c1c(=O)cc(CO)n2-c1c(Cl)cccc1Cl [Example 51, 8-chloro-1-(2,6-dichlorophenyl)-2-(hydroxymethyl)-5-((2-(methylsulfonyl)ethyl)amino)-1,6-naphthyridin-4(1H)-one]
16 | 7.14 | Cc1cc(=O)c2c(OCC(O)CO)ncc(C3CC3)c2n1-c1c(Cl)cccc1Cl (stereo not shown) [Example 52, 8-cyclopropyl-1-(2,6-dichlorophenyl)-5-(2,3-dihydroxypropoxy)-2-methyl-1,6-naphthyridin-4(1H)-one]
17 | 7.54 | COCc1cc(=O)c2c(OCC(O)CO)ncc(Cl)c2n1-c1c(Cl)cccc1Cl (stereo not shown) [Example 54, 8-chloro-1-(2,6-dichlorophenyl)-5-(2,3-dihydroxypropoxy)-2-(methoxymethyl)-1,6-naphthyridin-4(1H)-one]
18 | 7.27 | N#Cc1cccc(Cl)c1-n1c(C2CC2)cc(=O)c2c(OCC(O)CO)ncc(Cl)c21 (stereo not shown) [Example 55, 3-chloro-2-(8-chloro-2-cyclopropyl-5-(2,3-dihydroxypropoxy)-4-oxo-1,6-naphthyridin-1(4H)-yl)benzonitrile]
19 | 6.71 | Cc1cc(=O)c2c(NCCc3c[nH]cn3)cncc2n1-c1c(Cl)cc(C#N)cc1Cl [Example 56, 4-(5-((2-(1H-imidazol-4-yl)ethyl)amino)-2-methyl-4-oxo-1,7-naphthyridin-1(4H)-yl)-3,5-dichlorobenzontrile]
20 | 7.49 | CC1(C)OCC(COc2ncc(Cl)c3c2c(=O)cc(CO)n3-c2c(Cl)cccc2Cl)O1 (stereo not shown) [Example 57, 8-chloro-1-(2,6-dichlorophenyl)-5-((2,2-dimethyl-1,3-dioxolan-4-yl)methoxy)-2-(hydroxymethyl)-1,6-naphthyridin-4(1H)-one]
21 | 6.58 | O=c1cc(CO)n(-c2c(Cl)cc(F)cc2Cl)c2c(Cl)cnc(OCC(O)CO)c12 (stereo not shown) [Example 60, 8-Chloro-1-(2,6-dichloro-4-fluorophenyl)-5-(2,3-dihydroxypropoxy)-2-(hydroxymethyl)-1,6-naphthyridin-4(1H)-one]
22 | 7.17 | O=c1cc(CO)n(-c2c(Cl)cc(F)cc2Cl)c2c(Cl)cnc(OCCO)c12 [Example 61, 8-Chloro-1-(2,6-dichloro-4-fluorophenyl)-5-(2-hydroxyethoxy)-2-(hydroxymethyl)-1,6-naphthyridin-4(1H)-one]
23 | 6.63 | COc1cc2c(c(OCC(O)CO)n1)c(=O)cc(C)n2-c1c(Cl)cccc1Cl (stereo not shown) [Example 68, 1-(2,6-Dichlorophenyl)-5-(2,3-dihydroxpropoxy)-7-methoxy-2-methyl-1,6-naphthyridin-4(1H)-one]
24 | 6.94 | CCc1cnc(OCC(O)CO)c2c(=O)cc(C)n(-c3c(Cl)cccc3Cl)c12 (stereo not shown) [Example 69, 1-(2,6-Dichlorophenyl)-5-(2,3-dihydroxpropoxy)-8-ethyl-2-methyl-1,6-naphthyridin-4(1H)-one]
25 | 5.52 | Cc1cc(=O)c2c(NS(=O)(=O)c3cn[nH]c3)cncc2n1-c1c(Cl)cc(C#N)cc1Cl [Example 70, N-(1-(2,6-Dichloro-4-cyanophenyl)-2-methyl-4-oxo-1,4-dihydro-1,7-naphthyridin-5-yl)-1H-pyrazole-4-sulfonamide]
26 | 6.55 | Cc1cc(=O)c2c(-c3cc[nH]n3)cncc2n1-c1c(Cl)cc(C#N)cc1Cl [Example 72, 3,5-dichloro-4-(2-methyl-4-oxo-5-(1H-pyrazol-3-yl)-1,7-naphthyridin-1(4H)-yl)benzonitrile]
27 | 6.48 | Cc1cc(=O)c2c(-c3cnn(C)c3)cncc2n1-c1c(Cl)cc(C#N)cc1Cl [Example 73, 3,5-Dichloro-4-(2-methyl-5-(1-methyl-1H-pyrazol-4-yl)-4-oxo-1,7-naphthyridin-1(4H)-yl)benzonitrile]
28 | 6.45 | O=c1cc(CO)n(-c2c(Cl)cccc2Cl)c2c(Cl)cnc(CC(O)CO)c12 (stereo not shown) [Example 78, 8-Chloro-1-(2,6-dichlorophenyl)-5-(2,3-dihydroxypropyl)-2-(hydroxymethyl)-1,6-naphthyridin-4(1H)-one]
